Results: patent EP4650353A1 (Shanghai Institute of Materia Medica, Chinese Academy of …, priority 2023, dated 2024)

Assays:
hERG potassium channels = hERG potassium channels (Homo sapiens, UniProt Q12809); assay: cell-based
Experimental: CHO cells expressing hERG protein were cultured in 175 cm^2 culture flasks. When the cell density grew to 60-80%, the culture medium was removed, the cells were washed once with 7 mL PBS, and then 3 mL Detachin was added for digestion. After digestion was complete, 7 mL of culture medium was added to neutralize, then centrifuged. The supernatant was aspirated, and 5 mL of culture medium was added to resuspend to ensure that the cell density is 2-5×10^6/mL.
Both the single-cell high-impedance sealing and whole-cell mode formation processes were automatically completed by the Qpatch instrument. After obtaining the whole-cell recording mode, the cell was clamped at -80 mV. Before a 5-second +20 mV depolarizing stimulus was given, a 50-ms -50 mV pre-voltage was given, and then the cell was repolarized to -50 mV for 5 seconds and then returned to -80 mV. This voltage stimulation was applied every 15 seconds. After recording for 2 minutes, the extracellular solution was recorded for 2 minutes. Then the drug administration process began. The compound concentration started from the lowest tested concentration. Each tested concentration was given for 2 minutes. […] At least three cells were tested for each concentration (n≥3).
The compound stock solution was diluted with extracellular fluid, 5 µL of 20 mM compound stock solution was added to 2495 µL extracellular fluid, diluted 500 times to 40 µM, and then serially diluted 3 times in extracellular fluid containing 0.2% DMSO (v/v) to obtain the final concentration to be tested.
The experimental data were analyzed by XLFit software.

[1] = tested on: hGLP-1 receptor knock-in mice; assay: Mouse food intake suppression experiment (compound 19); format: in vivo; settings: 30 mg/kg oral
Experimental: (§1) Genetically engineered hGLP-1R gene knock-in mice, male, 8-10 weeks old, specific pathogen free (SPF) grade, were purchased from Biocytogen Jiangsu Gene Biotechnology Co., Ltd. All experimental animals were housed in the SPF-level environment of the National Compound Sample Library animal room, with a temperature of 24±2°C, a relative humidity of 40-60%RH, an air cleanliness level of 7, and a day and night light-dark cycle of 12h/12h; they were continuously supplied with cobalt-60 radiation-sterilized complete mouse granular feed (Shanghai Shilin Biotechnology Co., Ltd., maintenance feed for rats and mice), and were allowed to drink tap water (sterilized with high-pressure steam) without interruption, and were allowed to drink it freely. The cages were transparent polyetherimide cages (Suzhou Fengshi Experimental Animal Equipment Co., Ltd., CP-8 mouse cages), and the bedding was corn cobs (Tezhou Gumei Agricultural Technology Co., Ltd., used after high-pressure steam sterilization). There were 3-5 animals in each cage, and the cage card indicated the IACUC approval number, experiment number, experiment start time, person in charge, experimenter, animal source, group and animal number. The purchased mice were adapted to this breeding environment for at least 7 days before being used in experiments. […]

human GLP-1 receptor = target: T1, human GLP-1 receptor (Homo sapiens, UniProt P43220); assay: GLP-1 receptor-mediated agonist activity: cAMP level in hGLP-1R/HEK293 cell line (HTRF); format: cell-based; settings: cAMP levels in hGLP-1R/HEK293 cell line; Table 1; read-out: determined EC50
T1 construct: HA (N); expressed in transfected cells
T1 sequence (P43220 24-463): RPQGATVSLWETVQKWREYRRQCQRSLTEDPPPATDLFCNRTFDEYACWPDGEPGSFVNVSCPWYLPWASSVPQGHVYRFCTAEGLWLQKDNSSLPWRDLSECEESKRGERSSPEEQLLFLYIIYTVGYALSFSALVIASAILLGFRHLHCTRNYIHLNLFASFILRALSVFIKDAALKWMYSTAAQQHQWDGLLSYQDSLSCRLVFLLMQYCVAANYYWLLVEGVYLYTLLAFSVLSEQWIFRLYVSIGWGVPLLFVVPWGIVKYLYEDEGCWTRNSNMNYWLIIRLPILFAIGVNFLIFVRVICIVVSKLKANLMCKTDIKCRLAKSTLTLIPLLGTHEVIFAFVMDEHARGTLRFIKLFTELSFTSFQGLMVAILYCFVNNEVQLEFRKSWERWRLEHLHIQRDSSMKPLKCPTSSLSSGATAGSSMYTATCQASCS

[2] = tested on: hGLP-1 receptor knock-in mice; assay: Oral glucose tolerance test in mice; format: in vivo
Experimental: (§2) Genetically engineered hGLP-1R gene knock-in mice, male, 8-10 weeks old, specific pathogen free (SPF) grade, were purchased from Biocytogen Jiangsu Gene Biotechnology Co., Ltd. All experimental animals were housed in the SPF-level environment of the National Compound Sample Library animal room, with a temperature of 24±2°C, a relative humidity of 40-60%RH, an air cleanliness level of 7, and a day and night light-dark cycle of 12h/12h; they were continuously supplied with cobalt-60 radiation-sterilized complete mouse granular feed (Shanghai Shilin Biotechnology Co., Ltd., maintenance feed for rats and mice), and were allowed to drink tap water (sterilized with high-pressure steam) without interruption, and were allowed to drink it freely. The cages were transparent polyetherimide cages (Suzhou Fengshi Experimental Animal Equipment Co., Ltd., CP-8 mouse cages), and the bedding was corn cobs (Tezhou Gumei Agricultural Technology Co., Ltd., used after high-pressure steam sterilization). There were 3-5 animals in each cage, and the cage card indicated the IACUC approval number, experiment number, experiment start time, person in charge, experimenter, animal source, group and animal number. The purchased mice were adapted to this breeding environment for at least 7 days before being used in experiments. The animal use methods in this study were approved by the IACUC Committee of the Shanghai Institute of Materia Medica.
60 minutes after oral administration, blood glucose was measured again as zero-point blood glucose. Then, 2 g/kg of sugar was orally administered, and blood glucose was measured using a blood glucose meter 15 minutes, 30 minutes, 60 minutes, and 90 minutes after sugar administration. In order to explore the effect of long-term administration on glucose tolerance, 2 g/kg of sugar was orally administered again […] the administration of the compound, and the blood glucose changes were measured at 180 min, 195 min, 210 min, 240 min, and 270 min.

hGLP-1R transgenic mice = assay: Hypoglycemic effect of compound 76-1 (oral glucose tolerance test); format: in vivo
Experimental: Mouse model: hGLP-1R transgenic mice, 6 female mice per experimental group.
Experimental procedure: The mice were starved overnight, and the blood sugar in the tail of the mice was measured. 30 minutes after oral administration, the blood sugar was measured again as the blood sugar at zero point. Then, 2g/kg of sugar was given orally. 15min, 30min, 60min, and 90min after sugar administration, the blood sugar was measured using a blood glucose meter.

[3] = tested on: hGLP-1 receptor knock-in mice; assay: Mouse food intake suppression experiment (compound 76-1); format: in vivo; settings: 10 or 30 mg/kg oral
Experimental: as §1

[4] = tested on: hGLP-1 receptor knock-in mice; assay: Long-term administration in high-fat diet fed hGLP-1R mice for weight loss; format: in vivo; settings: ammonium salt
Experimental: as §2
The mice were weighed every day, and 24 hours after the last administration, the body fat and muscle content of the mice were detected using a Bruker desktop nuclear magnetic resonance spectrometer (model LF90II). • (4) Experimental results

β-arrestin 2 = assay: NanoBiT recruitment of β-arrestin 2 by GLP-1R in HEK293 cells; format: cell-based, human; settings: endogenous GLP-1 = 100%; Figure 2, n=3
Source text: (§3) The Promega NanoBiT protein-protein reaction system was used to detect the recruitment of β-arrestin 1 and β-arrestin 2 by GLP-1R. The NanoBit Protein-Protein Reaction System was a dual-subunit system based on NanoLuc luciferase that could be used to detect protein-protein interactions in cells. The LgBiT (17.6 kDa) and SmBiT (11 amino acids) subunits were fused to the proteins of interest, respectively. When the proteins of interest interact, the two subunits came into close proximity to form an enzyme with catalytic activity, which could catalyze the luminescence of the luciferase substrate. Firstly, the human GLP-1R gene was connected to the N-terminus of LgBit, the β-arrestin 1/2 gene was cloned to the C-terminus of SmBit, and the fusion protein was introduced into the pcDNA3.0 vector to construct plasmids expressing hGLP-1R-LgBit and SmBit-β-arrestin 1/2 fusion proteins. The hGLP-1R-LgBit plasmid and SmBit-β-arrestin 1 (or SmBit-β-arrestin 2) plasmid were co-transfected into HEK293 cells at a ratio of 1 µg plasmid/2×10^6 cells.

β-arrestin 1 = assay: NanoBiT recruitment of β-arrestin 1 by GLP-1R in HEK293 cells; format: cell-based, human; settings: endogenous GLP-1 = 100%; Figure 1, n=3
Source text: as §3

Sequence of hERG potassium channels (Q12809 whole entry): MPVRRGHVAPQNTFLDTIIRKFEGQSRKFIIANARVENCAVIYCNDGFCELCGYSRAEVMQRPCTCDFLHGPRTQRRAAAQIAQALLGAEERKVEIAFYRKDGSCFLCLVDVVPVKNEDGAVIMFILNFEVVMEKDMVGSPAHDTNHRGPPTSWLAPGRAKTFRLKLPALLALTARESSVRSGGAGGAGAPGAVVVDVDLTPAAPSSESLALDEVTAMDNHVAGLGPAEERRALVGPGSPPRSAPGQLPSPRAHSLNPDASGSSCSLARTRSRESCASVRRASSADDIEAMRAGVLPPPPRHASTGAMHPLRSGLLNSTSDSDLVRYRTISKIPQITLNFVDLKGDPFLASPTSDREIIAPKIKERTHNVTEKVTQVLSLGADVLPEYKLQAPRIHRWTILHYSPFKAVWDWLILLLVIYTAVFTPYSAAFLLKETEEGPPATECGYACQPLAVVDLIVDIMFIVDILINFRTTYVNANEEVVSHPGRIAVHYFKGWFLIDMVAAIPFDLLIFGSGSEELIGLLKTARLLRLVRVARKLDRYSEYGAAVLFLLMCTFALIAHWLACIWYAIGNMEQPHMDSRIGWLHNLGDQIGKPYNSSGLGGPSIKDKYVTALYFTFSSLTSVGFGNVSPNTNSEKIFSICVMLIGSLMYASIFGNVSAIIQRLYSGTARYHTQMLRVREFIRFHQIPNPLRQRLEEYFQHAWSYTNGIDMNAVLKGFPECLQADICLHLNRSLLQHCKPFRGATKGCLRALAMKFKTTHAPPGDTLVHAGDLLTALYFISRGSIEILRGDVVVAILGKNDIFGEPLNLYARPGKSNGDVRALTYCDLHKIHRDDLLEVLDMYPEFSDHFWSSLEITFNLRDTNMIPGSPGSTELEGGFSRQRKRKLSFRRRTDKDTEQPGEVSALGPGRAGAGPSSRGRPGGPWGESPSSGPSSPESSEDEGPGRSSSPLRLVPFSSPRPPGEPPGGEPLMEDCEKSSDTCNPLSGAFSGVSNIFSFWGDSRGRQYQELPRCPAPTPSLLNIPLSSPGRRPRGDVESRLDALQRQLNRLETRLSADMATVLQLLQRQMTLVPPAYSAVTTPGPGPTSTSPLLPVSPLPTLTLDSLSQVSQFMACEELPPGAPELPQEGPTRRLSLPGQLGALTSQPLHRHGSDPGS

Row | SMILES | IC50 (hERG potassium channels) | effect on food intake compared with positive control PF-06882961 ammonium salt at the same dose [1] | food intake ([1]; ammonium salt, within 0 to 12 hours after administration) | EC50 (human GLP-1 receptor) | effect compared with positive control PF-06882961 ammonium salt at the same dose ([2]; 1 mg/kg oral, oral glucose tolerance test) | lowering blood sugar in long-term oral glucose tolerance test ([2]; ammonium salt, 1 mg/kg oral, second sugar load 240 min after administration, AUC(180-270), vs PF-06882961 ammonium salt) | blood glucose area under the curve ([2]; ammonium salt, orally administered at 1 mg/kg, AUC(0-90), vs blank control) | blood glucose concentration ([2]; ammonium salt, orally administered at 1 mg/kg, vs blank control) | area under the blood glucose curve (AUC) (hGLP-1R transgenic mice; ammonium salt, 0.1, 0.3 mg/kg oral) | blood glucose level (hGLP-1R transgenic mice; ammonium salt, 0.1, 0.3 mg/kg oral, 30 min before 2 g/kg sugar) | effective dose (hGLP-1R transgenic mice; ammonium salt, oral, oral glucose tolerance test) | effect on food intake compared with positive control PF-06882961 ammonium salt at the same dose [3] | food intake ([3]; ammonium salt, within 0 to 12 hours, fasted 6 h) | weight gain of HFD-fed mice ([4]; 30 mg/kg by gavage once a day, 15 days) | reduce body weight compared with the blank control group ([4]; 30 mg/kg once a day, after 15 days of administration, HFD) | body fat and lean (muscle) content change trend in HFD mice ([4]; 30 mg/kg, after 15 days of administration) | maximum agonistic effect (Emax) recruiting β-arrestin 2 (β-arrestin 2) | maximum agonistic effect (Emax) recruiting β-arrestin 1 (β-arrestin 1)
1 | COc1cc(C(=O)O)cc2c1nc(CN1CCC(c3cccc(OCc4ccc(Cl)cc4F)n3)CC1)n2C[C@@H]1CCO1 [Compound 19, (S)-2-((4-(6-((4-chloro-2-fluorobenzyl)oxy)pyridin-2-yl)piperidin-1-yl)methyl)-4-methoxy-1-(oxetan-2-ylmethyl)-1H-benzo[d]imidazole-6-carboxylic acid] | 12500 nM | better than the positive control PF-06882961 ammonium salt | significantly inhibit the food intake | 0.0026 nM | better than the positive control PF-06882961 ammonium salt | more significant effect in lowering blood sugar | significantly reduce | significantly reduce | – | – | – | – | – | – | – | – | – | –
2 | [2H]C([2H])([2H])C([2H])([2H])Oc1cc(C(=O)O)cc2c1nc(CN1CCN(c3cccc4c3O[C@@](C)(c3ccc(Cl)cc3F)O4)C=N1)n2C[C@@H]1CCO1 [Compound 76-1, 2-((4-((S)-2-(4-chloro-2-fluorophenyl)-2-methylbenzo[d][1,3]dioxol-4-yl)-5,6-dihydro-1,2,4-triazin-1(4H)-yl)methyl)-4-(ethoxy-d5)-1-(((S)-oxetan-2-yl)methyl)-1H-benzo[d]imidazole-6-carboxylic acid] | – | – | – | 0.0016 nM | – | – | – | – | dose-dependently reduce | dose-dependently reduce | ≤ 0.1 mg/kg | better than the positive control PF-06882961 ammonium salt | significantly inhibit the food intake | effectively inhibit the weight gain | 20.4% | effectively inhibit this change trend | – | –
3 | CC[C@H](C)[C@H](NC(=O)[C@H](Cc1ccccc1)NC(=O)[C@H](CCC(=O)O)NC(=O)[C@H](CCCCN)NC(=O)[C@H](C)NC(=O)[C@H](C)NC(=O)[C@H](CCC(N)=O)NC(=O)CNC(=O)[C@H](CCC(=O)O)NC(=O)[C@H](CC(C)C)NC(=O)[C@H](Cc1ccc(O)cc1)NC(=O)[C@H](CO)NC(=O)[C@H](CO)NC(=O)[C@@H](NC(=O)[C@H](CC(=O)O)NC(=O)[C@H](CO)NC(=O)[C@@H](NC(=O)[C@H](Cc1ccccc1)NC(=O)[C@@H](NC(=O)CNC(=O)[C@H](CCC(=O)O)NC(=O)[C@H](C)NC(=O)[C@@H](N)Cc1c[nH]cn1)[C@@H](C)O)[C@@H](C)O)C(C)C)C(=O)N[C@@H](C)C(=O)N[C@@H](Cc1c[nH]c2ccccc12)C(=O)N[C@@H](CC(C)C)C(=O)N[C@H](C(=O)N[C@@H](CCCCN)C(=O)NCC(=O)N[C@@H](CCCNC(=N)N)C(N)=O)C(C)C [GLP-1] | – | – | – | – | – | – | – | – | – | – | – | – | – | – | – | – | 100% | 100%
